Experimental findings from patent US11623919B2, “Heterocyclic P2X7 antagonists” (AXXAM S.P.A., priority 2017, dated 2023) are described below.

SMILES strings stand for the structures. Bounds are passed on as bounds.

Assay type in all cases: cell-based
The target in experiment [1] is T1, P2X7 receptor (Homo sapiens, UniProt Q99572).
T1 sequence (Q99572 1-595): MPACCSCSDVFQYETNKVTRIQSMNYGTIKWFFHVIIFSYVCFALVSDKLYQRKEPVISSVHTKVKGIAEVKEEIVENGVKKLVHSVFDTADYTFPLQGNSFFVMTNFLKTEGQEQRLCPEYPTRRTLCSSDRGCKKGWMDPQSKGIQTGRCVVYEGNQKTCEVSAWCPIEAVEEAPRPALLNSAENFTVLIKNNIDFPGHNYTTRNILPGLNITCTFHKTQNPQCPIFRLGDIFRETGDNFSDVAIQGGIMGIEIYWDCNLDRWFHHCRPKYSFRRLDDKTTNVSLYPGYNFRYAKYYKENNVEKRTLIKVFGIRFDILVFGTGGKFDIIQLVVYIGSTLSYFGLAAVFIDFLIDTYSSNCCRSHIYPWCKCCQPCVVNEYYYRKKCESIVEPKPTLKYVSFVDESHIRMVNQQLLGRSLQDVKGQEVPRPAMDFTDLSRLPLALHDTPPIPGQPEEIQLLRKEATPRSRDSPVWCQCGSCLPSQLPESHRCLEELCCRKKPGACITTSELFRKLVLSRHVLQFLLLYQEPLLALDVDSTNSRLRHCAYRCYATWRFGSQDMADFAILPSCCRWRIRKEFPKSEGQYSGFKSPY
Kind of experiment: YO-PRO-1 uptake assay. Also on record: expressed in transfected cells. As to conditions: HEK-293 cells stably transfected with P2X7 receptor; Bz-ATP EC80 (30 μM); Low Divalent Cation Assay Buffer. An excerpt: YO-PRO®-1 is a fluorescent DNA-binding dye with a MW of 374 Da (Molecular Probes®, cat. Y3603). This method is based upon the presumed ability of YO-PRO®-1 to enter through the dilated or “large pore form” of P2X7 receptor and to bind to intracellular DNA whereupon it increases many fold its fluorescence intensity. The dye ha an absorption spectrum compatible with excitation at 488 nm by argon laser sources and its emission wavelength is in the range of 515-575 nm. The aim of this assay was to validate the interaction of antagonists with P2X7 receptor using an alternative readout to Ca2+-sensitive fluorescent dyes.
HEK-293 cells stably transfected with P2X7 receptor were seeded overnight un growth medium at 20,000 cell/well in 384-well plate. 24 hours later, the medium was removed, the cells were washed with Low Divalent Cation Assay Buffer (0.3 mM Ca^2+ and 0 mM Mg^2+) and then pre-loaded with 20 μL/w of 5 μM YO-PRO®-1 dye.
FLIPRTETRA fluorescence measurement immediately started. Then 10 μL/w of test compounds and reference antagonist A438079 at 3×-concentration were injected with the FLIPRTETRA and the kinetic response over a period of five minutes was monitored. A second injection of 10 μL/w of 3× Bz-ATP EC80 (30 μM) was performed with the FLIPRTETRA and the signal of the emitted fluorescence was recorded for additional 60 minutes. All the experiment was carried out with a Low Divalent Cation Assay Buffer (0.3 mM Ca^2+ and 0 mM Mg^2+).
The effect of the test compounds was measured as percent inhibition vs the reference antagonist and IC50 values were calculated accordingly.

Experiment [2] deals with T1, P2X7 receptor. Kind of experiment: Automated patch-clamp (QPatch16X) P2X7 channel assay. Also on record: expressed in transfected cells; host or cells: HEK-293. As to conditions: HEK-293 cells expressing P2X7 channels; whole-cell, held at -80 mV; 100 microM BzATP; compound 1, 10, 100 and 1000 nM; read-out: Q-Patch (IC50). An outline of the steps: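 Whole-cell patch clamp was run at room temperature on HEK-293 cells expressing P2X7, held at −80 mV with CsF internal and pH 7.4 NaCl external solutions. Currents were evoked by 100 µM BzATP alone and then with compound at 1, 10, 100 and 1000 nM. Peak inward currents were normalized and fitted to a Hill equation to give IC50.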

The target in experiment [3] is T1, P2X7 receptor. The experiment in a line: Screen Quest Fluo-8 No Wash Calcium Assay (Bz-ATP evoked Ca2+ influx, FLIPR). Conditions: hP2X7; HEK-293 cells stably transfected with P2X7 receptor, Bz-ATP at EC80, Fluo-8 NW; potency ranges A-D. Also on record: hP2X7 (IC50; nM); other: hP2X7; HEK-293 cells stably transfected with P2X7 receptor, Bz-ATP at EC80, Fluo-8 NW; potency. An outline of the steps:
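Compounds were added to Fluo-8-loaded P2X7-transfected HEK-293 cells 5 min before an EC80 Bz-ATP challenge, and Ca2+ influx was then recorded for 3 min. Buffer held 0.3 mM Ca2+ and no Mg2+. Inhibition was normalised to A438079, giving IC50 values.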

In general, IC50 refers to the midpoint of a concentration-inhibition curve. In the case of `O=c1onc(Cc2c(F)cccc2Cl)n1CC1CCCCCC1` [Example 92, 3-[(2-chloro-6-fluorophenyl)methyl]-4-(cycloheptylmethyl)-4,5-dihydro-1,2,4-oxadiazol-5-one], the IC50 against P2X7 receptor [1] is 42 nM; at P2X7 receptor [2], 18.1 nM; at P2X7 receptor [3], less than 200 nM.

In the case of `O=c1onc(Cc2ccc(F)cc2)n1Cc1c(F)cccc1Cl` [Example 1, 4-[(2-chloro-6-fluorophenyl)methyl]-3-[(4-fluorophenyl)methyl]-4,5-dihydro-1,2,4-oxadiazol-5-one], the concentration for half-maximal inhibition (IC50) at P2X7 receptor [1] is 581 nM; on P2X7 receptor [2], 247 nM; at P2X7 receptor [3], 200 to 1000 nM.

`O=c1onc(Cc2c(F)cccc2Cl)n1Cc1ccc(F)cc1F` [Example 61, 3-[(2-chloro-6-fluorophenyl)methyl]-4-[(2,4-difluorophenyl)methyl]-4,5-dihydro-1,2,4-oxadiazol-5-one]: the IC50 against P2X7 receptor [1] is 293 nM; on P2X7 receptor [2], 149 nM; at P2X7 receptor [3], 200 to 1000 nM.

`CC1(C)CCC(Cn2c(Cc3c(F)cccc3Cl)noc2=O)CC1` [Example 86, 3-[(2-chloro-6-fluorophenyl)methyl]-4-[(4,4-dimethylcyclohexyl)methyl]-4,5-dihydro-1,2,4-oxadiazol-5-one]: the IC50 on P2X7 receptor [1] is 111 nM; on P2X7 receptor [2] it was 154 nM; on P2X7 receptor [3], 200 to 1000 nM.

With `O=c1onc(Cc2c(F)cccc2Cl)n1Cc1ccc(F)cc1` [Example 55, 3-[(2-chloro-6-fluorophenyl)methyl]-4-[(4-fluorophenyl)methyl]-4,5-dihydro-1,2,4-oxadiazol-5-one], the results for the IC50 against P2X7 receptor [1], on P2X7 receptor [2] and at P2X7 receptor [3] were 50 nM, 33.8 nM and 200 to 1000 nM, respectively.

`O=c1onc(Cc2c(F)cccc2Cl)n1CC1CCCCO1` (stereo not drawn) [Example 94, 3-[(2-chloro-6-fluorophenyl)methyl]-4-(oxan-2-ylmethyl)-4,5-dihydro-1,2,4-oxadiazol-5-one]: the IC50 is 435 nM against P2X7 receptor [1], 332 nM at P2X7 receptor [2] and 200 to 1000 nM at P2X7 receptor [3].

`O=c1onc(Cc2c(F)cccc2Cl)n1CC1CCCCC1` [Example 82, 3-[(2-chloro-6-fluorophenyl)methyl]-4-(cyclohexylmethyl)-4,5-dihydro-1,2,4-oxadiazol-5-one]: the figures for the IC50 against P2X7 receptor [1], on P2X7 receptor [2] and on P2X7 receptor [3] were 30 nM, 21.4 nM and less than 200 nM, respectively.

In the case of `O=c1onc(Cc2c(F)cccc2Cl)n1CC1CCCCC1(F)F` (stereo not drawn) [Example 97, 3-[(2-chloro-6-fluorophenyl)methyl]-4-[(2,2-difluorocyclohexyl)methyl]-4,5-dihydro-1,2,4-oxadiazol-5-one], the IC50 against P2X7 receptor [1] is 193 nM; at P2X7 receptor [2] it was 100 nM; on P2X7 receptor [3], less than 200 nM.

On to `O=c1onc(CC2CCCCC2)n1Cc1c(F)cccc1Cl` [Example 130, 4-[(2-chloro-6-fluorophenyl)methyl]-3-(cyclohexylmethyl)-4,5-dihydro-1,2,4-oxadiazol-5-one], for which the results for the IC50 against P2X7 receptor [1], at P2X7 receptor [2] and on P2X7 receptor [3] were 233 nM, 94.8 nM and 200 to 1000 nM, respectively.

For `O=c1onc(Cc2c(F)cccc2Cl)n1CC1(F)CCCCC1` [Example 96, 3-[(2-chloro-6-fluorophenyl)methyl]-4-[(1-fluorocyclohexyl)methyl]-4,5-dihydro-1,2,4-oxadiazol-5-one], the IC50 at P2X7 receptor [1] was 523 nM; at P2X7 receptor [2], 245 nM; on P2X7 receptor [3], 200 to 1000 nM.

`CC(c1ccc(F)cc1)n1c(Cc2c(F)cccc2Cl)noc1=O` (stereo not drawn) [Example 48, 3-[(2-chloro-6-fluorophenyl)methyl]-4-[1-(4-fluorophenyl)ethyl]-4,5-dihydro-1,2,4-oxadiazol-5-one]: the results for the IC50 against P2X7 receptor [1], at P2X7 receptor [2] and on P2X7 receptor [3] were 340 nM, 386 nM and 200 to 1000 nM, respectively.

With `O=c1onc(Cc2c(F)cccc2Cl)n1Cc1ccc(C(F)(F)F)o1` [Example 66, 3-[(2-chloro-6-fluorophenyl)methyl]-4-{[5-(trifluoromethyl)furan-2-yl]methyl}-4,5-dihydro-1,2,4-oxadiazol-5-one], the IC50 against P2X7 receptor [1] is 456 nM; on P2X7 receptor [2], 1500 nM; on P2X7 receptor [3] it was 200 to 1000 nM.

For the molecule `O=c1onc(Cc2c(F)cccc2Cl)n1CCC1CCCCC1` [Example 142, 3-(2-chloro-6-fluorobenzyl)-4-(2-cyclohexylethyl)-1,2,4-oxadiazol-5(4H)-one], the IC50 at P2X7 receptor [1] is 467 nM; at P2X7 receptor [2], 153 nM; at P2X7 receptor [3], 200 to 1000 nM.

Consider `O=c1snc(Cc2c(F)cccc2Cl)n1CC1CCCCC1` [Example 140, 3-[(2-chloro-6-fluorophenyl)methyl]-4-(cyclohexylmethyl)-4,5-dihydro-1,2,4-thiadiazol-5-one], for which the results for the IC50 at P2X7 receptor [1], on P2X7 receptor [2] and on P2X7 receptor [3] were 181 nM, 39.2 nM and 200 to 1000 nM, respectively.

Take `CC1CCCCC1Cn1c(Cc2c(F)cccc2Cl)noc1=O` (stereo not drawn) [Example 87, 3-[(2-chloro-6-fluorophenyl)methyl]-4-[(2-methylcyclohexyl)methyl]-4,5-dihydro-1,2,4-oxadiazol-5-one]: the IC50 against P2X7 receptor [1] is 82 nM; on P2X7 receptor [2], 44.1 nM; at P2X7 receptor [3], less than 200 nM.

Regarding `O=c1onc(Cc2c(F)cccc2Cl)n1CC1CCC(F)(F)C1` (racemic) [Example 128, 3-[(2-chloro-6-fluorophenyl)methyl]-4-[(3,3-difluorocyclopentyl)methyl]-4,5-dihydro-1,2,4-oxadiazol-5-one], the IC50 was 115 nM against P2X7 receptor [1], 45.2 nM at P2X7 receptor [2] and less than 200 nM at P2X7 receptor [3].

Regarding `O=c1onc(Cc2c(F)cccc2Cl)n1CC1CCC(F)(F)C1` (single isomer, unassigned) [Example 149, 3-(2-chloro-6-fluorobenzyl)-4-[(3,3-difluorocyclopentyl)methyl]-1,2,4-oxadiazol-5(4H)-one], the figures for the IC50 at P2X7 receptor [1], at P2X7 receptor [2] and on P2X7 receptor [3] were 66 nM, 68.6 nM and less than 200 nM, respectively.

Consider `Cc1cc(F)ccc1Cn1c(Cc2c(F)cccc2Cl)noc1=O` [Example 25, 3-[(2-chloro-6-fluorophenyl)methyl]-4-[(4-fluoro-2-methylphenyl)methyl]-4,5-dihydro-1,2,4-oxadiazol-5-one], for which the values for the IC50 at P2X7 receptor [1], at P2X7 receptor [2] and on P2X7 receptor [3] were 115 nM, 51.1 nM and less than 200 nM, respectively.

As to `O=c1onc(Cc2c(F)cccc2Cl)n1Cc1ccc(Cl)cc1` [Example 65, 3-[(2-chloro-6-fluorophenyl)methyl]-4-[(4-chlorophenyl)methyl]-4,5-dihydro-1,2,4-oxadiazol-5-one], the IC50 is 318 nM on P2X7 receptor [1], 348 nM on P2X7 receptor [2] and 200 to 1000 nM on P2X7 receptor [3].

Take `CC1(C)CCCCC1Cn1c(Cc2c(F)cccc2Cl)noc1=O` (stereo not drawn) [Example 99, 3-[(2-chloro-6-fluorophenyl)methyl]-4-[(2,2-dimethylcyclohexyl)methyl]-4,5-dihydro-1,2,4-oxadiazol-5-one]: the IC50 against P2X7 receptor [1] was 142 nM; at P2X7 receptor [2] it was 124 nM; on P2X7 receptor [3] it was 200 to 1000 nM.
